Source: patent US20130109703A1, “Combination of a GPR119 Agonist and the DPP-IV Inhibitor Linagliptin for Use in the Treatment of Diabetes and Related Conditions” (Boehringer Ingelheim International GmbH, priority 2010, published 2013)

Key:
[1] = system: Zucker Diabetic Fatty (ZDF) rats (ZDF/Crl-Lepr^fa); assay: Oral glucose tolerance test in overnight fasted 9-weeks old male ZDF rats; format: in vivo, rat; conditions: 1st Example, FIG. 1; single oral dose 30 min before oral glucose load 2 g/kg; Cpd. A 3 mg/kg, Cpd. B 100 mg/kg, combination at the same doses; versus vehicle
Experimental: (§1) According to a first example an oral glucose tolerance test is performed in overnight fasted 9-weeks old male Zucker Diabetic Fatty (ZDF) rats (ZDF/Crl-Lepr^fa). A pre-dose blood sample is obtained by tail bleed. Blood glucose is measured with a glucometer, and the animals are randomized for blood glucose (n=5/group). […] The animals receive an oral glucose load (2 g/kg) 30 min after compound administration. Blood glucose is measured in tail blood 15 min, 30 min, 60 min, and 90 min after the glucose challenge. Glucose excursion is quantified by calculating the reactive glucose AUC. The data are presented as mean±SEM. The two-sided unpaired Student t-test is used for statistical comparison of the control group and the active groups as well as between active groups.

[2] = system: Zucker Diabetic Fatty (ZDF) rats (ZDF/Crl-Lepr^fa); assay: Oral glucose tolerance test in overnight fasted 15-weeks old male ZDF rats (highly insulin-resistant model); format: in vivo, rat; conditions: single oral dose 30 min before oral glucose load 2 g/kg, Cpd. A 3 mg/kg, combination at the same doses, versus vehicle
Experimental: as §1, with “to a second example an” for “to a first example an”, “overnight fasted 15-weeks old male” for “overnight fasted 9-weeks old male”, “rats (ZDF/Crl-Lepr^fa). This aged ZDF rats serve as a highly insulin-resistant animal model. A pre-dose” for “rats (ZDF/Crl-Lepr^fa). A pre-dose”, “tail blood 30 min,” for “tail blood 15 min, 30 min,”, “60 min, 90 min, 120 min, and 180” for “60 min, and 90”, “min, and 180 min after” for “min, and 90 min after”

[3] = Excretion route of BI 1356 at therapeutic oral dose levels; format: in vivo

- excretion via the kidney [3]: < 7 % of the administered oral dose
Compound: CC#CCn1c(N2CCC[C@@H](N)C2)nc2c1c(=O)n(Cc1nc(C)c3ccccc3n1)c(=O)n2C [Cpd. A, 1-[(4-methyl-quinazolin-2-yl)methyl]-3-methyl-7-(2-butyn-1-yl)-8-(3-(R)-amino-piperidin-1-yl)-xanthine]
- reduction of glucose excursion (reactive glucose AUC) [1]: 49%
- reduction of glucose excursion (reactive glucose AUC) ([2]; 2nd Example, FIG. 2, Cpd. B 30 mg/kg): 1%
- reduction of glucose excursion (reactive glucose AUC) ([2]; 3rd Example, FIG. 3, Cpd. B 10 mg/kg): 1%
